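Following 48 hours of exposure in 96-well plates, responses at five concentrations were used to interpolate endpoints linearly. Abbreviation: GI50, concentration required for 50% inhibition of growth.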 Calls of active or inactive are those of the source. Rule as the data show it: active = GI50 up to about 1.1 µM and inactive = higher.
Legend:
Experiment in all cases: DTP human tumour cell line panel, 48 h
[1] = tested on: IGROV-1
[2] = tested on: ACHN
[3] = tested on: NCI-H226
[4] = tested on: Malme-3M
[5] = tested on: SNB-19
[6] = tested on: SR
[7] = tested on: CCRF-CEM
[8] = tested on: HT-29
[9] = tested on: OVCAR-4
[10] = tested on: UACC-257
[11] = tested on: HCT-116
[12] = tested on: EKVX
[13] = tested on: 786-0
[14] = tested on: OVCAR-3
[15] = tested on: NCI-H522
[16] = tested on: M14
[17] = tested on: CAKI-1
[18] = tested on: NCI-H23
[19] = tested on: SNB-75
[20] = tested on: SF-539

Measured: GI50

NC(CCP(=O)(O)O)C(=O)O (centres undefined)
inactive: [1] > 100 µM | [2] > 100 µM | [3] > 100 µM | [4] > 100 µM | [5] > 100 µM | [6] > 100 µM | [7] > 100 µM | [8] > 100 µM | [9] > 100 µM | [10] > 100 µM | [11] > 100 µM | [12] > 100 µM | [13] > 100 µM | [14] > 100 µM | [15] > 100 µM | [16] > 100 µM | [17] > 100 µM | [18] > 100 µM

COc1ccc2c(c1)CCN=C2Cc1ccccc1CCCl
inactive: [19] 31.3 µM | [1] 25.8 µM | [2] 30.1 µM | [3] 26.2 µM | [5] 25.8 µM | [6] 51.2 µM | [7] 20.7 µM | [8] 12.2 µM | [9] 22 µM | [10] 30.7 µM | [11] 11.9 µM | [12] 37.2 µM | [13] 25.3 µM | [14] 33.9 µM | [15] 19.6 µM | [20] 20.5 µM | [16] 19.1 µM | [17] 22.1 µM | [18] 20.8 µM

Cn1c(-c2ccccc2)cc2c3ccsc3c3ccsc3c21
inactive: [19] > 100 µM | [1] > 100 µM | [2] > 100 µM | [3] > 100 µM | [4] > 100 µM | [5] > 100 µM | [6] 39.1 µM | [8] > 100 µM | [9] > 100 µM | [10] > 100 µM | [11] > 100 µM | [13] 79.3 µM | [14] > 100 µM | [15] > 100 µM | [20] > 100 µM | [16] > 100 µM | [17] > 100 µM | [18] > 100 µM

Cc1cc(O)cc2c1c(=O)c1ccccc1n2C
inactive: [19] 87.5 µM | [1] > 100 µM | [2] 89.7 µM | [3] 49.1 µM | [5] 34.8 µM | [6] 48.5 µM | [7] > 100 µM | [8] > 100 µM | [9] 80.2 µM | [10] > 100 µM | [11] 54.7 µM | [12] > 100 µM | [13] 44.4 µM | [14] > 100 µM | [15] 34.8 µM | [20] 32.5 µM | [16] > 100 µM | [17] > 100 µM | [18] 38.9 µM

NC1=NNC2(C(N)=N1)c1ccccc1-c1ccccc12
inactive: [19] > 10 µM | [1] > 10 µM | [2] > 10 µM | [3] > 10 µM | [4] > 10 µM | [5] > 10 µM | [6] > 10 µM | [8] > 10 µM | [9] > 10 µM | [10] > 10 µM | [11] > 10 µM | [12] > 10 µM | [13] > 10 µM | [15] > 10 µM | [20] > 10 µM | [16] > 10 µM | [17] > 10 µM | [18] > 10 µM

N=c1oc2c(Cl)cc(Cl)cc2cc1C(=O)Nc1cccc2ccccc12
inactive: [19] 3.2 µM | [1] 5.32 µM | [2] 3.52 µM | [3] 19.3 µM | [4] 26.3 µM | [5] 19.5 µM | [6] 12.4 µM | [7] 3.57 µM | [8] 39.4 µM | [9] 2.49 µM | [10] > 100 µM | [11] 4.79 µM | [12] 8.93 µM | [13] 5.71 µM | [14] 4.61 µM | [15] 8.17 µM | [16] > 44.7 µM | [17] 10.6 µM | [18] 16.5 µM

O=C(Nc1ccccc1)Nn1c(-c2cccs2)nc2ccc(I)cc2c1=O
inactive: [19] 2.74 µM | [1] 19.7 µM | [2] 27.5 µM | [3] 28.8 µM | [5] 42.2 µM | [6] 16.8 µM | [7] 20.5 µM | [8] 25.9 µM | [9] 16.9 µM | [10] 17.2 µM | [11] 31.4 µM | [12] 20.9 µM | [13] 61.7 µM | [14] 11 µM | [15] 14.3 µM | [20] 33.7 µM | [16] 35.9 µM | [17] 23.8 µM | [18] 27.3 µM

COc1ccc(CNc2ccn(C3OC(CO)C(O)C3O)c(=O)n2)cc1 (centres undefined)
inactive: [1] > 100 µM | [2] > 100 µM | [3] > 100 µM | [4] > 100 µM | [5] > 100 µM | [6] > 100 µM | [7] 31.3 µM | [8] 46.3 µM | [9] 37.2 µM | [10] 49.8 µM | [11] 55.5 µM | [12] 73.5 µM | [13] > 100 µM | [14] > 100 µM | [15] 70.1 µM | [20] > 100 µM | [16] 50.5 µM | [17] > 100 µM | [18] 88.7 µM

From ChEMBL document CHEMBL1201862, “PubChem BioAssay data set” (2004)
